Reference: patent publication US20210338684A1, “DIAGNOSTIC AND THERAPEUTIC METHODS FOR CANCER” (Genentech, Inc., priority 2016, published 2021)
“Also recorded” adds a separate entry of the source.

Columns and labels:
[1] = test system: ARID1A-mutant cancer cell lines; experiment: Clonogenic assay (colony formation); assay type: cell-based, human
Experimental: (§1) 1,800-5,000 cells were plated in each 6-well plate, according to the doubling time. 24 hours after plating, the medium was removed and replaced with medium containing EPZ-6438 at different concentrations. Fresh medium with EPZ-6438 was replaced every 3 to 4 days until control cells reached confluence to stop culture. For studies evaluating the effect of EZH2 knockout, cells were plated 7 days following puromycin selection. The medium was removed, and cells were washed with PBS and stained with 0.5% crystal violet for 20 minutes at room temperature. Dye was removed, cell monolayers were washed with water, and the plate was washed and photographed.

ARID1A-mutant cell lines = experiment: 3D Matrigel culture, acini formation; assay type: cell-based, human
Experimental: Wells of a 24 well plated were coated with 70 μl Matrigel Matrix (Corning) and allowed to congeal at room temperature. Cells (n=5,000) were plated on top of the basement matrix in 400 μl RPMI+10% FBS containing 2% Matrigel matrix. Cells were treated with the respective compounds in 400 μl media to replenish the old media. Colonies were imaged on a Zeiss Axio Observer A1 microscope 10 days after the start of experiment.

[2] = test system: SMARCA4-mutant cancer cell lines; experiment: Clonogenic assay (colony formation)
[3] = test system: SMARCB1-mutant malignant rhabdoid tumor lines; experiment: Clonogenic assay (colony formation); assay type: cell-based, human; details: two SMARCB1-mutant malignant rhabdoid tumor lines
Experimental: as §1

SWI/SNF wild-type models = experiment: Clonogenic assay (colony formation); assay type: cell-based, human; details: panel (n=8) of cell lines wildtype for SWI/SNF complex genes
Experimental: as §1

[4] = test system: SMARCA4-mutant cell lines; experiment: Cell morphology after prolonged treatment; assay type: cell-based, human; details: EPZ-6438-sensitive models, 21 days of treatment, 5 μM
[5] = test system: SMARCA4-mutant cell lines; experiment: Caspase 3/7 apoptosis assay; assay type: cell-based, human; details: several other models, prolonged exposure
Experimental: (§2) Apoptosis was monitored through (a) live cell imaging analysis using the Incucyte Caspase-3/7 Apoptosis Assay (Essen Biosciences, Cat. No. 4440) or through a static time point assessment using the Caspase-Glo 3/7 Assay (Promega, G8090). For Incucyte-based assays (FIG. 4B), 300-600 cells (based on doubling time) were plated in 96-well plates, and at 24 hours, media was replaced with EPZ-6438-containing media at the indicated concentrations and Caspase 3/7 reagent (Essen Bioscience). Fresh media containing EPZ-6438 and Caspase 3/7 reagent was replaced every 3 to 4 days. Phase contrast and fluorescent images were collected every 3 hours, and the number of fluorescent objects were counted and analyzed according to the Incucyte protocol. Data are presented as Caspase 3/7 fluorescent counts normalized to DMSO control at the indicated time points. For determination of apoptosis by Caspase-Glo (FIG. 18C, 19G), TO[…] cells were plated at 500 cells per well in a 96 well plate and treated with the indicated concentrations of EPZ-6438 for 6 days. Caspase 3/7 activity was measured according to the manufacturer's instructions, and results were normalized to signal in DMSO control wells, when indicated. To evaluate senescence induction, cells were stained for β-galactosidase activity using the Senescence Cells Histochemical Staining Kit (Sigma), according to the manufacturers instructions.

TOV-112D cells = experiment: Caspase 3/7 apoptosis assay; assay type: cell-based, human
Experimental: as §2

[6] = target: SMARCA4-mutant EPZ-6438-sensitive models; experiment: Senescence β-galactosidase staining; assay type: cell-based, human
Experimental: as §2

NCI-H522 cells = experiment: Edu incorporation (DNA synthesis); assay type: cell-based, human; details: 8 weeks of treatment, relative to resistant NCI-H1568
NCI-H522 xenografts = experiment: Xenograft study, tumor growth; assay type: in vivo, mouse; details: oral
Experimental: (§3) TOV-21G and NCI-H522 cells (American Type Culture Collection, Manassas, Va.) were cultured in vitro and harvested in HBSS:Matrigel (BD Biosciences; Franklin Lakes, N.J.) (1:1, v:v) for subcutaneous inoculation into female mice. TOV-21G cells were inoculated into Fox Chase SCIO® Beige mice (Charles River Laboratories, San Diego, Calif.). NCI-H522 cells were inoculated into BALB/c Nude mice (Vital River Laboratories, Beijing, China). Mice bearing established tumors were separated into groups of equally sized tumors (n=5, minimum) to receive escalating doses of EPZ-6438. EPZ-6438 was formulated once weekly in 0.5% sodium carboxymethylcellulose and 0.1% tween-80 at concentrations needed for target doses in a volume of 0.2 ml. All formulations were stored at 4° C., brought to room temperature, and mixed by vortex before oral administration by gavage twice daily from Day 1 until the end of the study. Tumor volumes were calculated from perpendicular length and width caliper measurements using the formula:
(§4) Tumor Volume (mm^3)=0.5×(Length×Width^2).
(§5) A mixed modeling approach was used to analyze the repeated measurement of tumor volumes from the same animals over time. Cubic regression splines were used to fit a nonlinear profile to the time courses of log 2-transformed tumor volumes in each group. Fitting was done via a linear mixed-effects model, using the package “nlme” (version 3.1-97) in R version 2.13.0 (R Development Core Team 2008; R Foundation for Statistical Computing; Vienna, Austria). Fitted tumor volumes were plotted in the natural scale in Prism (version 5.0b for Mac) (GraphPad Software; La Jolla, Calif.).

TOV-21G tumor xenografts = experiment: Xenograft study, tumor growth; assay type: in vivo, mouse; details: SCID mice, 450 mg/kg BID, 28 days
Experimental: as §3, §4, §5

[7] = test system: H3K27 methylation in NCI-H522 tumor xenograft tissue; experiment: Pharmacodynamic Western blot of xenograft tumor tissue; assay type: in vivo, mouse; details: strongest at 450 mg/kg BID; day 7, three hours after dosing
Experimental: (§6) Plasma and tumor samples for pharmacodynamic analysis were collected from tumor-bearing mice on day 7, 3 hours following the last dose. Tumor tissue was lysed in RIPA buffer containing 1M NaCl and homogenized for 3 minutes at speed 10 (NEXTADVANCE, BULLET BLENDER® 24) prior to Western blotting.

[8] = test system: H3K27me3 in TOV-21G tumor xenograft tissue; experiment: as above; assay type: in vivo, mouse; details: day 7, three hours following twice-daily oral administration
Experimental: as §6

[9] = test system: H3K27me3 at the SMARCA2 promoter; experiment: H3K27me3 ChIP-PCR; assay type: cell-based, human; details: TOV-112D cells
Experimental: For each sample, 10×10^6 cells were harvested and washed with 1×PBS. Cells were fixed and sheared following the instructions provided with the truChlP Chromatin Shearing Reagent Kit (Covaris). Cells were fixed for 5 minutes with 1% formaldehyde and then quenched with quenching buffer for 5 minutes. Cells were then washed with cold 2×PBS. Nuclei were isolated and sheared using the Covaris AFA Focused-ultrasonicator for 20 minutes. The IP was conducted with 500 μg sheared chromatin and 10 μg anti-H3K27me3 (Active Motif cat #39155) or anti-Rabbit IgG. The Magna ChIP kit (Millipore) was used for IP. For each IP, a 50 μl mixture of Dynabeads protein A and G (50/50 mix) was incubated with primary antibody for 3 hours. The beads were added to 500 μg of sheared chromatin. The beads and antibodies were incubated overnight at 4° C. The beads were then washed with the following wash buffers: low salt, high salt, LiCI wash buffer, and TE Buffer. DNA was extracted from the beads in ChIP elution buffer with protease K at 64° C. with shaking overnight. DNA was then purified using the QIAquick PCR Purification Kit (Qiagen). DNA was eluted with 30 μl of water. 1.0 μl of eluted DNA was used for each SYBR green PCR reaction. SMARCA2 was amplified using the following primers: forward, […] (SEQ ID NO: 27); reverse, […] (SEQ ID NO: 28). […]

cathepsin B (CTSB) = experiment: CTSB transcript and protein expression; assay type: cell-based, human; details: TOV-112D control cells, 5 μM
Experimental: For studies evaluating EPZ-6438 effects, cells were treated with various doses of EPZ-6438 for 6 days. On day 3, fresh medium containing EPZ-6438 was introduced. Cell pellets were lysed in RIPA buffer containing 1M NaCl and homogenized for 3 minutes at speed 10 (NextAdvance, Bullet Blender® 24). 12 μg or 18 μg protein was dissolved in 4-12% bis-Tris or 3-8% Tris-acetate gel and transferred to polyvinylidend difluoride (PVDF) membranes. IRDYE® secondary antibodies were used for detection by an Odyssey Imager (LI-COR). Total RNA was extracted using Qiagen RNeasy Plus Mini kit, according to the manufacturers protocol. Quality control of samples was performed to determine RNA quantity and quality prior to their processing by RNA-seq. The concentration of RNA samples was determined using NanoDrop 8000 (Thermo Scientific) and the integrity of RNA was determined by Fragment Analyzer (Advanced Analytical Technologies). 0.5 μg of total RNA was used as an input material for library preparation using TruSeq RNA Sample Preparation Kit v2 (Illumina). Size of the libraries was confirmed using 2200 TapeStation and High Sensitivity D1K screen tape (Agilent Technologies), and their concentration was determined by qPCR based method using Library quantification kit (KAPA). The libraries were multiplexed and sequenced on Illumina HiSeq2500 (Illumina) to generate 30M of single end 50 base pair reads.

[10] = test system: mono-, di-, and tri-methylated H3K27; experiment: Western blot of H3K27 methylation in cells
SMARCA2 = SMARCA2 expression (Taqman quantitative RT-PCR, Western blot); details: for induction of SMARCA2 transcript and protein: 6 or 10 days
[11] = OVTOKO and OVISE ARID1A-mutant cell lines
[12] = SMARCA4-mutant cells resistant to EPZ-6438 (H1299, A549)
[13] = SMARCA4-mutant cells sensitive to EPZ-6438 (SNU-484, TOV112D), dose-dependent
[14] = COV434, SNU-484 and G401 cells expressing shBRM

Question: `CCS(=O)(=O)N1CCC([C@@H](C)n2c(C)c(C(=O)NCc3c(OC)cc(C)[nH]c3=O)c3ccccc32)CC1` [CPI-169] was tested. Which “differential sensitivity of colony formation” value ([1]; ARID1A-mutant versus ARID1A-WT ovarian cell lines) did it give?
Answer: phenocopied

Question: And the acini formation (ARID1A-mutant cell lines; A2780 cells (positive control))?
Answer: inhibition of both clonogenic growth and acini formation

Question: And the acini formation (ARID1A-mutant cell lines; [11])?
Answer: lack of activity

Question: And the colony formation [2, 12]?
Answer: no effect

Question: What about the colony formation [2, 13] of the same molecule?
Answer: inhibited colony formation

Question: Which colony formation [2, 12] does the source give for `CC[C@H](C)n1cc(C)c2c(C(=O)NCc3c(C)cc(C)[nH]c3=O)cc(-c3ccc(N4CCNCC4)nc3)cc21` [GSK-126] here?
Answer: no effect

Question: And the colony formation [2, 13]?
Answer: inhibited colony formation

Question: With `CCN(c1cc(-c2ccc(CN3CCOCC3)cc2)cc(C(=O)NCc2c(C)cc(C)[nH]c2=O)c1C)C1CCOCC1` [EPZ-6438] as the molecule, how does the “inhibition in colony formation” value ([1]; panel of ARID1A-mutant cancer cell lines) read?
Answer: inhibition in colony formation was observed in a subset

Question: And the “inhibition in colony formation” value [3]?
Answer: inhibition in colony formation

Question: And the “activity on colony formation” value (SWI/SNF wild-type models)?
Answer: No activity; also recorded: No effect

Question: And the “morphologic changes (cell flattening and enlargement)” value [4]?
Answer: pronounced morphologic changes

Question: What about the “apoptosis (caspase 3/7)” value [5] of the same molecule?
Answer: subpopulations of apoptotic cells

Question: What about the “dose-dependent induction of apoptosis in cells expressing shBRM” value (TOV-112D cells; TOV-112D cells expressing shBRM, 6 days) of the same molecule?
Answer: prevented

Question: What about the “activation of caspase 3/7 in cells expressing shCTSB” value (TOV-112D cells; TOV-112D cells expressing shRNAs targeting CTSB) of the same molecule?
Answer: significantly suppressed

Question: And the “apoptotic response (caspase 3/7)” value (TOV-112D cells; TOV-112D cells, seven days of treatment)?
Answer: strong apoptotic response

Question: And the “kinetics of senescence induction (homogenous β-galactosidase expression)” value ([6]; COV434 model)?
Answer: homogenous expression of β-galactosidase by seven days

Question: What about the “kinetics of senescence induction (homogenous β-galactosidase expression)” value ([6]; NCI-HS22 cells) of the same molecule?
Answer: not observed until a few weeks

Question: And the “senescence-associated β-galactosidase expression” value ([6]; some SMARCA4-mutant EPZ-6438-sensitive models, most notable in COV434 and NCI-HS22)?
Answer: Increases in senescence-associated β-galactosidase expression

Question: What about the “DNA synthesis / proliferative state by Edu incorporation” value (NCI-H522 cells) of the same molecule?
Answer: non-proliferative state; also recorded: inhibition of DNA synthesis

Question: What about the “tumor growth inhibition (TGI)” value (NCI-H522 xenografts; 450 mg/kg BID) of the same molecule?
Answer: 72%

Question: What about the “inhibition of tumor growth” value (NCI-H522 xenografts; twice daily (BID), 30, 100, 450 mg/kg, 23 days) of the same molecule?
Answer: dose-dependent inhibition of tumor growth

Question: What about the tumor growth inhibition (TOV-21G tumor xenografts) of the same molecule?
Answer: tumor growth inhibition

Question: And the “H3K27me3 and H3K27me2 in tumor tissue” value [7]?
Answer: reduction of H3K27me3 and H3K27me2

Question: And the “H3K27me3 in tumor tissue” value [8]?
Answer: target inhibition

Question: And the “association of H3K27me3 with the SMARCA2 gene promoter” value [9]?
Answer: significant decrease

Question: And the acini formation (ARID1A-mutant cell lines; A2780 cells (positive control))?
Answer: inhibition of both clonogenic growth and acini formation

Question: What about the acini formation (ARID1A-mutant cell lines; [11]) of the same molecule?
Answer: lack of activity

Question: What about the “CTSB transcript and protein” value (cathepsin B (CTSB)) of the same molecule?
Answer: strongly upregulated

Question: And the “colony formation in cells expressing SMARCA2 shRNA (shBRM)” value [2, 14]?
Answer: did not affect the ability of EPZ-6438 to inhibit colony formation

Question: And the “dose-dependent inhibition of colony formation in cells expressing shBRM” value ([2]; TOV-112D cells expressing shBRM)?
Answer: prevented the dose-dependent inhibition of colony formation

Question: And the “inhibition in colony formation” value ([2]; panel of 11 SMARCA4-mutant cancer cell lines, increasing doses)?
Answer: dose-dependent inhibition in colony formation was observed in a subset

Question: And the “inhibition of H3K27 methylation in cells expressing shBRM” value [10, 14]?
Answer: no effect on the ability of EPZ-6438 to inhibit H3K27 methylation

Question: What about the “inhibition of mono-, di-, and tri-methylated H3K27” value ([10]; EPZ-6438-sensitive and EPZ-6438-resistant cell lines, dose-dependent, 6-day treatment) of the same molecule?
Answer: inhibited mono-, di-, and tri-methylated H3K27 to a similar extent

Question: What about the “induction of SMARCA2 transcript and protein” value (SMARCA2; EPZ-6438-resistant SMARCA4-mutant cell lines, 5 μM) of the same molecule?
Answer: but not EPZ-6438-resistant

Question: And the “induction of SMARCA2” value (SMARCA2; EPZ-6438-sensitive ARID1A-mutant A2780 cells, 5 μM, 6 days)?
Answer: induction of SMARCA2

Question: And the “induction of SMARCA2 transcript and protein” value (SMARCA2; EPZ-6438-sensitive SMARCA4-mutant cell lines, 5 μM)?
Answer: strong induction

Question: And the SMARCA2 levels (SMARCA2; SMARCB1-mutant MRT line G401, 6 days, EPZ-6438 5 μM, 5-Aza 1 μM)?
Answer: induction in SMARCA2 levels

Question: How did the “SMARCA2 mRNA levels” value (SMARCA2; SMARCA4-mutant cells with repressed SMARCA2) turn out when `Nc1ncn([C@H]2C[C@H](O)[C@@H](CO)O2)c(=O)n1` [5-aza-2′-deoxycytidine] was run?
Answer: did not impact
